Source: PubChem BioAssay (NCI)
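Grown in 96-well plates, cells were treated for 48 hours with each compound at five concentrations. Insufficient inhibition: endpoint recorded as highest concentration tested. At the GI50, growth is halved. TGI is the concentration that stops growth completely.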

Tests used:
Assay in all cases: inhibition of tumour cell growth, NCI panel, 48 h
[1] = test system: MDA-MB-435
[2] = test system: NCI-H23 lung
[3] = test system: SK-MEL-5 melanoma
[4] = test system: RXF 393 renal
[5] = test system: UACC-257 melanoma
[6] = test system: HS 578T breast
[7] = test system: MDA-MB-468 breast
[8] = test system: SK-MEL-28 melanoma
[9] = test system: SF-268 CNS
[10] = test system: U251 CNS
[11] = test system: UACC-62 melanoma
[12] = test system: TK-10 renal
[13] = test system: NCI-H522 lung
[14] = test system: IGROV1 ovarian
[15] = test system: NCI-H460 lung
[16] = test system: BT-549 breast
[17] = test system: CCRF-CEM leukemia
[18] = test system: DU-145 prostate
[19] = test system: T-47D breast
[20] = test system: ACHN renal
[21] = test system: HCT-15 colon
[22] = test system: M14 melanoma
[23] = test system: SF-295 CNS
[24] = test system: OVCAR-5 ovarian
[25] = test system: A498 renal
[26] = test system: NCI-H226 lung
[27] = test system: MCF7 breast
[28] = test system: MDA-MB-231 breast
[29] = test system: A549 NSCLC
[30] = test system: SF-539 CNS
[31] = test system: UO-31 renal
[32] = test system: HT29 colon
[33] = test system: OVCAR-3 ovarian
[34] = test system: SN12C renal
[35] = test system: SK-MEL-2 melanoma
[36] = test system: K-562 leukemia
[37] = test system: CAKI-1 renal
[38] = test system: HCC-2998 colon
[39] = test system: OVCAR-4 ovarian
[40] = test system: RPMI-8226 leukemia
[41] = test system: SNB-75 CNS
[42] = test system: EKVX NSCLC
[43] = test system: 786-0 renal
[44] = test system: SNB-19 CNS
[45] = test system: LOX IMVI melanoma
[46] = test system: HOP-92 NSCLC
[47] = test system: OVCAR-8 ovarian
[48] = test system: SK-OV-3 ovarian
[49] = test system: MOLT-4 leukemia
[50] = test system: HL-60(TB) leukemia
[51] = test system: PC-3 prostate
[52] = test system: SW-620 colon
[53] = test system: NCI/ADR-RES ovarian
[54] = test system: MALME-3M melanoma
[55] = test system: HOP-62 NSCLC
[56] = test system: KM12 colon
[57] = test system: HCT-116 colon
[58] = test system: COLO 205 colon
[59] = test system: SR leukemia

`CC(=O)Nc1cccc(-c2nc3cc(-c4ccc(O)cc4)ccc3n2C)c1` gave a GI50 [1] of 5.29 µM, a TGI [1] of 19.3 µM and a GI50 [2] of 10.6 µM. It also gave a TGI [2] of 31 µM, a GI50 [3] of 3.24 µM and a TGI [3] of 11.6 µM. It also gave a GI50 [4] of 11.4 µM, a TGI [4] of 39.5 µM and a GI50 [5] of 3.76 µM. For the same compound, the TGI [5] was 15.5 µM, the GI50 [6] was 19.7 µM and the TGI [6] was > 100 µM. For the same compound, the GI50 [7] was 1.83 µM, the TGI [7] was 7.12 µM and the GI50 [8] was 11.4 µM. The TGI [8] was 29.6 µM, the GI50 [9] was 17.7 µM and the TGI [9] was > 100 µM. For the same compound, the GI50 [10] was 18.3 µM, the TGI [10] was > 100 µM and the GI50 [11] was 7.42 µM. It also gave a TGI [11] of 24.9 µM, a GI50 [12] of 19.4 µM and a TGI [12] of 81.5 µM. For the same compound, the GI50 [13] was 5.16 µM, the TGI [13] was 20.7 µM and the GI50 [14] was 14.4 µM. The TGI [14] was 46.6 µM, the GI50 [15] was 11.6 µM and the TGI [15] was 36.4 µM. The GI50 [16] was 5.07 µM, the TGI [16] was 17.7 µM and the GI50 [17] was 6.06 µM. It also gave a TGI [17] of 50 µM, a GI50 [18] of 16.6 µM and a TGI [18] of 65.3 µM. The GI50 [19] was 2.91 µM, the TGI [19] was 11.9 µM and the GI50 [20] was 5.17 µM. The TGI [20] was 47.7 µM, the GI50 [21] was 18.8 µM and the TGI [21] was 68.8 µM. It also gave a GI50 [22] of 12.9 µM, a TGI [22] of 26.8 µM and a GI50 [23] of 10.1 µM. It also gave a TGI [23] of 36.2 µM, a GI50 [24] of 25.8 µM and a TGI [24] of 93.5 µM. It also gave a GI50 [25] of 19.2 µM, a TGI [25] of 67.6 µM and a GI50 [26] of 7.76 µM. It also gave a TGI [26] of 51.7 µM, a GI50 [27] of 4.38 µM and a TGI [27] of 22.2 µM. The GI50 [28] was 23.7 µM, the TGI [28] was > 100 µM and the GI50 [29] was 12.1 µM. It also gave a TGI [29] of 60.1 µM, a GI50 [30] of 16.1 µM and a TGI [30] of 62.8 µM. For the same compound, the GI50 [31] was 10.8 µM, the TGI [31] was 31.8 µM and the GI50 [32] was 24 µM. For the same compound, the TGI [32] was > 100 µM, the GI50 [33] was 16.2 µM and the TGI [33] was 63.5 µM. For the same compound, the GI50 [34] was 17.8 µM, the TGI [34] was > 100 µM and the GI50 [35] was 8.73 µM. For the same compound, the TGI [35] was 26.1 µM, the GI50 [36] was 8.91 µM and the TGI [36] was > 100 µM. The GI50 [37] was 11.5 µM, the TGI [37] was 49.2 µM and the GI50 [38] was 17.1 µM. For the same compound, the TGI [38] was 74 µM, the GI50 [39] was 3.64 µM and the TGI [39] was 27.2 µM. The GI50 [40] was 4.7 µM, the TGI [40] was 23.8 µM and the GI50 [41] was 9.43 µM. It also gave a TGI [41] of 46.3 µM, a GI50 [42] of 13.8 µM and a TGI [42] of 51 µM. The GI50 [43] was 28.2 µM, the TGI [43] was > 100 µM and the GI50 [44] was 27.2 µM. The TGI [44] was > 100 µM, the GI50 [45] was 14.3 µM and the TGI [45] was 31.7 µM. The GI50 [46] was 11.7 µM, the TGI [46] was > 100 µM and the GI50 [47] was 10.8 µM. For the same compound, the TGI [47] was 26.9 µM, the GI50 [48] was 25.8 µM and the TGI [48] was 96.5 µM. For the same compound, the GI50 [49] was 4.6 µM, the TGI [49] was 29.5 µM and the GI50 [50] was 10.6 µM. The TGI [50] was 39.7 µM, the GI50 [51] was 13.7 µM and the TGI [51] was 65 µM. The GI50 [52] was 16.8 µM, the TGI [52] was 42.9 µM and the GI50 [53] was 21 µM. It also gave a TGI [53] of 63.5 µM, a GI50 [54] of 5.01 µM and a TGI [54] of 18.6 µM. The GI50 [55] was 28.1 µM, the TGI [55] was 65.4 µM and the GI50 [56] was 12.8 µM. It also gave a TGI [56] of 29.7 µM, a GI50 [57] of 15.1 µM and a TGI [57] of 50.9 µM. For the same compound, the GI50 [58] was 17.3 µM, the TGI [58] was 34.2 µM and the GI50 [59] was 12.3 µM. For the same compound, the TGI [59] was > 100 µM.
